Reference: US10588317B2, “Isoxazoline-substituted benzamides and analogues as insecticides” (priority 2015, dated 2020)
Read-outs that look alike come from different tables or passages of the source.

Columns and labels:
Format in all cases: in vivo
[1] = system: Thrips tabaci; assay: Thrips tabaci (onion thrips): feeding/contact activity; settings: 144 h
Procedure: (§1) Sunflower leaf discs were placed on agar in 24-well microtiter plates and sprayed with aqueous test solutions prepared from 10'000 ppm DMSO stock solutions. After drying the leaf discs were infested with a Thrips population of mixed ages. The samples were assessed for mortality 6 days after infestation.

[2] = system: Tetranychus urticae; assay: Tetranychus urticae (two-spotted spider mite): feeding/contact activity; settings: 192 h, application rate 200 ppm, mixed population (mobile stages), 8 days after infestation, read-out: mortality
Procedure: as §1, with “Bean” for “Sunflower”, “discs” for “discs were placed”, “were” for “and”, “mite” for “Thrips”, “on mixed population (mobile stages) 8” for “6”

[3] = system: Plutella xylostella; assay: Plutella xylostella (diamond back moth), artificial diet; settings: 120 h, read-out: effect in at least one of the two categories (mortality or growth inhibition); for percent effect (mortality or growth inhibition) at 200 ppm: application rate 200 ppm, L2 larvae, 5 days after infestation
Procedure: (§2) 24-well microtiter plates with artificial diet were treated with aqueous test solutions prepared from 10'000 ppm DMSO stock solutions by pipetting. After drying, the plates were infested with L2 larvae (10 to 15 per well). The samples were assessed for mortality and growth inhibition in comparison to untreated samples 5 days after infestation.
(§3) The following compounds gave an effect of at least 80% in at least one of the two categories (mortality or growth inhibition) at an application rate of 200 ppm: […]

[4] = system: Euschistus heros; assay: Euschistus heros (neotropical brown stink bug), sprayed soybean leaves; settings: 120 h, application rate 200 ppm, N2 nymphs, 5 days after infestation, read-out: effect in at least one of the two categories (mortality or growth inhibition)
Procedure: Soybean leaves on agar in 24-well microtiter plates were sprayed with aqueous test solutions prepared from 10'000 ppm DMSO stock solutions. After drying the leaves were infested with N2 nymphs. The samples were assessed for mortality and growth inhibition in comparison to untreated samples 5 days after infestation.
as §3

[5] = system: Diabrotica balteata; assay: Diabrotica balteata (corn root worm), sprayed maize sprouts; settings: 96 h, application rate 200 ppm, L2 larvae, 4 days after infestation, read-out: effect in at least one of the two categories (mortality or growth inhibition)
Procedure: as §2, with “Maize sprouts placed onto an agar layer in 24-well” for “24-well”, “plates” for “plates with artificial diet”, “spraying.” for “pipetting.”, “(6” for “(10”, “10” for “15”, “4” for “5”
as §3

[6] = system: Spodoptera littoralis; assay: Spodoptera littoralis (Egyptian cotton leaf worm), sprayed cotton leaf discs; settings: foliar, 72 h, read-out: control (mortality, anti-feeding effect, growth inhibition)
Procedure: Cotton leaf discs were placed onto agar in 24-well microtiter plates and sprayed with aqueous test solutions prepared from 10'000 ppm DMSO stock solutions. After drying the leaf discs were infested with five L1 larvae. The samples were assessed for mortality, anti-feeding effect, and growth inhibition in comparison to untreated samples 3 days after infestation. Control of Spodoptera littoralis by a test sample is given when at least one of the categories mortality, anti-feedant effect, and growth inhibition is higher than the untreated sample.

[7] = application rate 200 ppm, Thrips population of mixed ages, 6 days after infestation, read-out: mortality
[8] = application rate 200 ppm, L1 larvae, 3 days after infestation

Cc1cc(C2=NO[C@@](c3cc(Cl)c(F)c(Cl)c3)(C(F)(F)F)C2)ccc1C(=O)NC1CON(S(=O)(=O)c2ccc(Cl)cc2)C1 (stereo partly drawn) [Compound A2, N-[2-(4-chlorophenyl)sulfonylisoxazolidin-4-yl]-4-[(5S)-5-(3,5-dichloro-4-fluoro-phenyl)-5-(trifluoromethyl)-4H-isoxazol-3-yl]-2-methyl-benzamide]
≥ 80%: mortality at 200 ppm [1, 7] | mortality at 200 ppm [2] | percent effect (mortality or growth inhibition) at 200 ppm [3] | percent effect (mortality or growth inhibition) at 200 ppm [4] | percent effect (mortality or growth inhibition) at 200 ppm [5] | mortality at 200 ppm [6, 8]

Cc1cc(C2=NO[C@@](c3cc(Cl)c(F)c(Cl)c3)(C(F)(F)F)C2)ccc1C(=O)NC1CON(S(=O)(=O)c2cccs2)C1 (stereo partly shown) [Compound A9]
≥ 80%: mortality at 200 ppm [1, 7] | mortality at 200 ppm [2] | percent effect (mortality or growth inhibition) at 200 ppm [3] | percent effect (mortality or growth inhibition) at 200 ppm [4] | percent effect (mortality or growth inhibition) at 200 ppm [5] | mortality at 200 ppm [6, 8]

Cc1cc(C2=NO[C@@](c3cc(Cl)c(Cl)c(Cl)c3)(C(F)(F)F)C2)ccc1C(=O)NC1CON(S(C)(=O)=O)C1 (stereo partly drawn) [Compound A26, 2-methyl-N-(2-methylsulfonylisoxazolidin-4-yl)-4-[(5S)-5-(3,4,5-trichlorophenyl)-5-(trifluoromethyl)-4H-isoxazol-3-yl]benzamide]
≥ 80%: percent effect (mortality or growth inhibition) at 200 ppm [4]

CS(=O)(=O)N1CC(NC(=O)c2ccc(C3=NOC(c4cc(Cl)cc(Cl)c4)(C(F)(F)F)C3)c3ccccc23)CO1 (stereo not shown) [Compound A46]
≥ 80%: mortality at 200 ppm [1, 7] | mortality at 200 ppm [2] | percent effect (mortality or growth inhibition) at 200 ppm [3] | percent effect (mortality or growth inhibition) at 200 ppm [4] | percent effect (mortality or growth inhibition) at 200 ppm [5] | mortality at 200 ppm [6, 8]

CS(=O)(=O)N1CC(NC(=O)c2ccc(C3=NOC(c4cc(Cl)cc(Cl)c4)(C(F)(F)F)C3)cc2C#N)CO1 (stereo not shown) [Compound A47]
≥ 80%: mortality at 200 ppm [6, 8]

CS(=O)(=O)N1CC(NC(=O)c2ccc(C3=NOC(c4cc(Cl)cc(Cl)c4)(C(F)(F)F)C3)cc2Cl)CO1 (stereo not shown) [Compound A49]
≥ 80%: mortality at 200 ppm [1, 7] | mortality at 200 ppm [2] | percent effect (mortality or growth inhibition) at 200 ppm [3] | percent effect (mortality or growth inhibition) at 200 ppm [4] | percent effect (mortality or growth inhibition) at 200 ppm [5] | mortality at 200 ppm [6, 8]

Cc1cc(Cl)cc(C2(C(F)(F)F)CC(c3ccc(C(=O)NC4CON(S(C)(=O)=O)C4)c(C)c3)=NO2)c1 (stereo not shown) [Compound A51]
≥ 80%: mortality at 200 ppm [1, 7] | mortality at 200 ppm [2] | percent effect (mortality or growth inhibition) at 200 ppm [3] | percent effect (mortality or growth inhibition) at 200 ppm [5] | mortality at 200 ppm [6, 8]

Cc1cc(C2=NOC(c3ccc(OC(F)(F)F)cc3)(C(F)(F)F)C2)ccc1C(=O)NC1CON(S(C)(=O)=O)C1 (stereo not shown) [Compound A53]
≥ 80%: mortality at 200 ppm [2] | percent effect (mortality or growth inhibition) at 200 ppm [3] | percent effect (mortality or growth inhibition) at 200 ppm [5] | mortality at 200 ppm [6, 8]

Cc1cc(C2=NOC(c3ccnc(F)c3)(C(F)(F)F)C2)ccc1C(=O)NC1CON(S(C)(=O)=O)C1 (stereo not shown) [Compound A54]
≥ 80%: mortality at 200 ppm [2] | percent effect (mortality or growth inhibition) at 200 ppm [3] | percent effect (mortality or growth inhibition) at 200 ppm [4] | percent effect (mortality or growth inhibition) at 200 ppm [5] | mortality at 200 ppm [6, 8]

Cc1cc(C2=NOC(c3ccc(Br)cc3)(C(F)(F)F)C2)ccc1C(=O)NC1CON(S(C)(=O)=O)C1 (stereo not shown) [Compound A55]
≥ 80%: mortality at 200 ppm [1, 7] | mortality at 200 ppm [2] | percent effect (mortality or growth inhibition) at 200 ppm [3] | percent effect (mortality or growth inhibition) at 200 ppm [5] | mortality at 200 ppm [6, 8]

CS(=O)(=O)N1CC(NC(=O)c2ccc(C3=NOC(c4cc(Cl)cc(Cl)c4)(C(F)(F)F)C3)c3ncccc23)CO1 (stereo not shown) [Compound A56]
≥ 80%: percent effect (mortality or growth inhibition) at 200 ppm [3] | mortality at 200 ppm [6, 8]

Cc1cc(C2=NO[C@@](c3ccc(C(F)(F)F)c(F)c3)(C(F)(F)F)C2)ccc1C(=O)N[C@H]1CON(S(C)(=O)=O)C1 [Compound A170]
≥ 80%: mortality at 200 ppm [1, 7] | mortality at 200 ppm [2] | percent effect (mortality or growth inhibition) at 200 ppm [3] | percent effect (mortality or growth inhibition) at 200 ppm [5] | mortality at 200 ppm [6, 8]

Cc1cc(C2=NO[C@](c3ccc(C(F)(F)F)c(F)c3)(C(F)(F)F)C2)ccc1C(=O)N[C@@H]1CON(S(=O)(=O)N(C)C)C1 [Compound A171]
≥ 80%: mortality at 200 ppm [1, 7] | mortality at 200 ppm [2] | percent effect (mortality or growth inhibition) at 200 ppm [3] | percent effect (mortality or growth inhibition) at 200 ppm [5] | mortality at 200 ppm [6, 8]

C=CS(=O)(=O)N1C[C@H](NC(=O)c2ccc(C3=NO[C@@](c4cc(Cl)cc(Cl)c4)(C(F)(F)F)C3)cc2C)CO1 [Compound A175]
≥ 80%: mortality at 200 ppm [6, 8]

Cc1cc(C2=NO[C@](c3cc(Cl)cc(Cl)c3)(C(F)(F)F)C2)ccc1C(=O)N[C@H]1CON(S(=O)(=O)CCBr)C1 [Compound A177, N-[(4R)-2-(2-bromoethylsulfonyl)-1,2-oxazolidin-4-yl]-4-[(5R)-5-(3,5-dichlorophenyl)-5-(trifluoromethyl)-4H-1,2-oxazol-3-yl]-2-methylbenzamide]
≥ 80%: mortality at 200 ppm [1] | percent control (mortality or growth inhibition) at 200 ppm [3] | mortality at 200 ppm [6]

CNS(=O)(=O)N1C[C@H](NC(=O)c2ccc(C3=NO[C@@](c4ccc(C(F)(F)F)c(F)c4)(C(F)(F)F)C3)cc2C)CO1 [Compound A182]
≥ 80%: mortality at 200 ppm [1, 7] | mortality at 200 ppm [2] | percent effect (mortality or growth inhibition) at 200 ppm [3] | percent effect (mortality or growth inhibition) at 200 ppm [5] | mortality at 200 ppm [6, 8]

C=CS(=O)(=O)N1C[C@@H](NC(=O)c2ccc(C3=NO[C@@](c4cc(Cl)c(F)c(Cl)c4)(C(F)(F)F)C3)cc2C)CO1 [Compound A193, 4-[(5S)-5-(3,5-dichloro-4-fluorophenyl)-5-(trifluoromethyl)-4H-1,2-oxazol-3-yl]-N-[(4R)-2-ethenylsulfonyl-1,2-oxazolidin-4-yl]-2-methylbenzamide]
≥ 80%: mortality at 200 ppm [1, 7] | mortality at 200 ppm [2] | percent effect (mortality or growth inhibition) at 200 ppm [3] | mortality at 200 ppm [6, 8]

CNC(=O)CS(=O)(=O)N1C[C@H](NC(=O)c2ccc(C3=NO[C@@](c4cc(Cl)cc(Cl)c4)(C(F)(F)F)C3)cc2C)CO1 [Compound A201]
≥ 80%: mortality at 200 ppm [2] | percent effect (mortality or growth inhibition) at 200 ppm [3] | percent effect (mortality or growth inhibition) at 200 ppm [4] | percent effect (mortality or growth inhibition) at 200 ppm [5] | mortality at 200 ppm [6, 8]

Cc1cc(C2=NOC(c3cc(C(F)(F)F)ccn3)(C(F)(F)F)C2)ccc1C(=O)N[C@H]1CON(S(C)(=O)=O)C1 (stereo partly shown) [Compound A222]
≥ 80%: mortality at 200 ppm [2] | percent effect (mortality or growth inhibition) at 200 ppm [3] | percent effect (mortality or growth inhibition) at 200 ppm [5] | mortality at 200 ppm [6, 8]

Cc1nc(C2=NOC(c3cc(Cl)cc(Cl)c3)(C(F)(F)F)C2)ccc1C(=O)NC1CON(S(C)(=O)=O)C1 (stereo not shown) [Compound A237]
≥ 80%: percent effect (mortality or growth inhibition) at 200 ppm [3] | percent effect (mortality or growth inhibition) at 200 ppm [5] | mortality at 200 ppm [6, 8]

CS(=O)(=O)N1CC(NC(=O)c2ccc(C3=NOC(c4cc(Cl)cc(Cl)c4)(C(F)(F)F)C3)cn2)CO1 (stereo not shown) [Compound A238]
≥ 80%: mortality at 200 ppm [6, 8]

CS(=O)(=O)N1CC(NC(=O)c2cnc(C3=NOC(c4cc(Cl)cc(Cl)c4)(C(F)(F)F)C3)c3ccccc23)CO1 (stereo not shown) [Compound A239]
≥ 80%: mortality at 200 ppm [1, 7] | percent effect (mortality or growth inhibition) at 200 ppm [3] | percent effect (mortality or growth inhibition) at 200 ppm [4] | percent effect (mortality or growth inhibition) at 200 ppm [5] | mortality at 200 ppm [6, 8]
